The source of these data is patent US20050148631A1, “Amino heterocyclyl inhibitors of 11-beta-hydroxy steroid dehydrogenase type 1” (AGOURON PHARMACEUTICALS, INC., priority 2003, published 2005).

Where two headings read alike, the source gives them in different places.

Test [1] addresses T1, 11β-hsd-1 enzyme (Homo sapiens, UniProt P28845). The test can be described thus: 11β-hsd-1 enzyme assay, Kiapp determination (3H-cortisone to cortisol, radio-HPLC). As to conditions: apparent Ki, 11β-hsd-1 enzyme; read-out: Ki app. Type of test: biochemical.
Test [2] has as its target T1, 11β-hsd-1 enzyme. Kind of test: 11β-hsd-1 enzyme assay, percentage of inhibition (3H-cortisone to cortisol, radio-HPLC). Type of test: biochemical.
Test [3] has as its system normal subjects. Particulars: ingestion; cited from earlier work.
The test system of test [4] is healthy human volunteers. As to conditions: cited from earlier work.
The mark [5] stands for this setting: compound at 0.1 uM, read-out: % inh @ 0.1 uM.

T1 sequence (P28845 whole entry, species assumed): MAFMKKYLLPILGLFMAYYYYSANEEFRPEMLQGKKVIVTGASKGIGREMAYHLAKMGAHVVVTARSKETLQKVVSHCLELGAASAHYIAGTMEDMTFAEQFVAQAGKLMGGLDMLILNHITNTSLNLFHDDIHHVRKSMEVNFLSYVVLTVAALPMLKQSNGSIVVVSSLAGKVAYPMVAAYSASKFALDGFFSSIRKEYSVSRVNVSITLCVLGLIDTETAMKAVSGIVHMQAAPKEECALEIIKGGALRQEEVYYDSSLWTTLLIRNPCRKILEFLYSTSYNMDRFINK

As for `Cc1cccc(NS(=O)(=O)c2sc3ccc(C#N)cc3c2C)n1` [Example 295, 5-Cyano-3-methyl-benzo[b]thiophene-2-sulfonic acid (6-methyl-pyridin-2-yl)-amide], in test [1], the Ki turned out to be 2.3 nM. Also, in test [2] (setting [5]), the inhibition at 0.1 µM is 100%.

Take `Cc1cccc(NS(=O)(=O)N2CCc3ccccc3C2)n1` [Example 300]: in test [1], the Ki came to 11 nM. Besides, the inhibition at 0.1 µM in test [2] (setting [5]) was 88.3%.

On to `Cc1cccc(NS(=O)(=O)N2CCC(c3ccc(F)cc3)CC2)n1` [Example 301], for which the Ki in test [1] amounted to 4.9 nM. Besides, the inhibition at 0.1 µM in test [2] (setting [5]) was 100%.

On to `CCc1cccc(NS(=O)(=O)N2CCc3ccccc3C2)n1` [Example 303], for which the Ki in test [1] was found to be 7.6 nM. Moreover, the inhibition at 0.1 µM in test [2] (setting [5]) was 89.3%.

For `Cc1cc(C)nc(NS(=O)(=O)N2CCc3ccccc3C2)c1` [Example 304], the Ki in test [1] is 20 nM. Besides, in test [2] (setting [5]), the inhibition at 0.1 µM turned out to be 79.6%.

As for `Cc1cccc(NS(=O)(=O)N2CCC(c3ccccc3)CC2)n1` [Example 306], in test [1], the Ki worked out at 7.4 nM. For the same compound, in test [2] (setting [5]), the inhibition at 0.1 µM came to 100%.

On to `N#Cc1ccc(C2CCN(S(=O)(=O)Nc3ccc4ccccc4n3)CC2)cc1` [Example 308], for which, in test [1], the Ki was under 1 nM. Further, the inhibition at 0.1 µM in test [2] (setting [5]) is 95.7%.

Regarding `Cc1cccc(NS(=O)(=O)N2CCC(c3cccc(F)c3)CC2)n1` [Example 309], the Ki in test [1] came out at 7.6 nM. Moreover, the inhibition at 0.1 µM in test [2] (setting [5]) is 90%.

With `Cc1cccc(NS(=O)(=O)N2CCC(c3ccc(C#N)cc3)CC2)n1` [Example 310], the Ki in test [1] is 18 nM. Besides, the inhibition at 0.1 µM in test [2] (read-out: % inh @ 0.1 uM, compound at 0.1 uM) turned out to be 100%.

With `Cc1cc(C)nc(NS(=O)(=O)N2CCC(c3ccc(C#N)cc3)CC2)c1` [Example 311], the Ki in test [1] was found to be 2.6 nM. The inhibition at 0.1 µM in test [2] (setting [5]) amounted to 100%.

For the compound `Cc1cccc(NS(=O)(=O)N2CCC(Oc3ccccc3)CC2)n1` [Example 314], in test [1], the Ki is 52 nM. Also, the inhibition at 0.1 µM in test [2] (setting [5]) is 71.8%.

Turning to `O=S(=O)(Nc1ccc2ccccc2n1)N1CCc2conc2CC1` [Example 315], the Ki in test [1] was determined as 25 nM. Besides, the inhibition at 0.1 µM in test [2] (setting [5]) turned out to be 86.1%.

As to `O=S(=O)(Nc1ccc2ccccc2n1)N1CCC(c2ccccn2)CC1` [Example 316], the Ki in test [1] turned out to be 67 nM. For the same compound, the inhibition at 0.1 µM in test [2] (setting [5]) is 67.4%.

Turning to `N#Cc1ccc(C2CCN(S(=O)(=O)Nc3cccc(N)n3)CC2)cc1` [Example 317, 4-(4-Cyano-phenyl)-piperidine-1-sulfonic acid (6-amino-pyridin-2-yl)-amide], the Ki in test [1] is under 1 nM. In addition, the inhibition at 0.1 µM in test [2] (setting [5]) came to 100%.

Regarding `CC1(C)[C@@H](OC(=O)CCC(=O)O)CC[C@]2(C)[C@H]3C(=O)C=C4[C@@H]5C[C@@](C)(C(=O)O)CC[C@]5(C)CC[C@@]4(C)[C@]3(C)CC[C@@H]12` [carbenoxolone], the “reduction of intraocular pressure” value in test [3] is 20%. Also, the hepatic insulin sensitivity entry in test [4] was “improved”.
